Measured values reported in PMC5522529, “Mechanisms of Paradoxical Activation of AMPK by the Kinase Inhibitors SU6656 and Sorafenib” (Cell Chemical Biology, 2017).

Assays:
Type in all cases: cell-based
AMPK-α1 AA mutant = molecular target: T1, AMPK-α1 AA mutant (Homo sapiens, UniProt Q13131, K40A/K42A); experiment: AMPK activity of FLAG-tagged AMPK-α1 K40A/K42A (AA) mutant expressed in HEK293 cells
T1 construct: Plasmid encoding full-length human AMPK-α1; expressed in transfected cells; host or cells: HEK293
T1 sequence (Q13131 whole entry K40A/K42A): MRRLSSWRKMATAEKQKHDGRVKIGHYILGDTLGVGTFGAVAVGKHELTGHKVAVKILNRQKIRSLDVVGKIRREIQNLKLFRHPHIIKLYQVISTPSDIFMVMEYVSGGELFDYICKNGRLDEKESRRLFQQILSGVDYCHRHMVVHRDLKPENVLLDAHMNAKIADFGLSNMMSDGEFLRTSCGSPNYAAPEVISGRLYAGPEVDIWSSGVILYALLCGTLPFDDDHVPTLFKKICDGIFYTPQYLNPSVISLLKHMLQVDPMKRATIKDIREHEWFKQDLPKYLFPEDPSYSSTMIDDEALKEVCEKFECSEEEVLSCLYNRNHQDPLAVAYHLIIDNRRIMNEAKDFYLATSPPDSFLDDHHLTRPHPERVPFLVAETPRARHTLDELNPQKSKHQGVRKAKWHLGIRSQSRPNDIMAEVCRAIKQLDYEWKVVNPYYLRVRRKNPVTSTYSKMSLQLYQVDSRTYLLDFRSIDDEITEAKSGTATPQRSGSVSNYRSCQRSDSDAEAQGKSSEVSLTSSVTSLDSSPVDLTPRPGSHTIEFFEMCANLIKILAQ
T1 sequence (P54619 whole entry partner): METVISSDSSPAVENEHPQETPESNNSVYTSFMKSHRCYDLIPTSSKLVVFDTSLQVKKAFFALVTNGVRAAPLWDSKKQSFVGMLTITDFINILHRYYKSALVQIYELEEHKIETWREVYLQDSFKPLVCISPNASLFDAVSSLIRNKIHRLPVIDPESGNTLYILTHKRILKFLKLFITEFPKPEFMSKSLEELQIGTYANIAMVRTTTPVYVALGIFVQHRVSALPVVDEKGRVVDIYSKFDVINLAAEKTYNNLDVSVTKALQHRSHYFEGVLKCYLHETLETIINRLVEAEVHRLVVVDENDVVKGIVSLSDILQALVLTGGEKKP
Source text: (B) Western blotting of the same preparations as in (A). […] (D) Allosteric activation of WT and mutant α1β1γ1 complexes by MT 63-78, curve fitting as for (C). […] (E) Allosteric activation of WT and mutant α1β1γ1 complexes by AMP. Data were fitted to the equation for activation/inactivation by AMP ([Gowans et al., 2013]). […] (F) Activation of WT and AA mutant by various AMPK activators in HEK293 cells. […] FLAG-tagged complexes were isolated by immunoprecipitation and AMPK activity determined (mean ± SEM, n = 2).
We next expressed the FLAG-tagged WT or AA mutant of AMPK-α1 by transient transfection in HEK293 cells, treated with various agents, and measured AMPK activity in anti-FLAG immunoprecipitates. In Figure 4F, the results are expressed as absolute activities and are accompanied by blots showing Thr172 phosphorylation.

[1] = molecular target: T2, α1 kinase domain (α1-KD, residues 1–312) (Homo sapiens, UniProt Q13131); experiment: Activity of FLAG-tagged α1 kinase domain expressed in HEK293 cells; settings: 1 hr
T2 construct: amplifying residues 1-312 with an N-terminal FLAG-tag; expressed in transfected cells; host or cells: HEK293 (transient transfection, pcDNA5 FRT)
T2 sequence (Q13131 1-312): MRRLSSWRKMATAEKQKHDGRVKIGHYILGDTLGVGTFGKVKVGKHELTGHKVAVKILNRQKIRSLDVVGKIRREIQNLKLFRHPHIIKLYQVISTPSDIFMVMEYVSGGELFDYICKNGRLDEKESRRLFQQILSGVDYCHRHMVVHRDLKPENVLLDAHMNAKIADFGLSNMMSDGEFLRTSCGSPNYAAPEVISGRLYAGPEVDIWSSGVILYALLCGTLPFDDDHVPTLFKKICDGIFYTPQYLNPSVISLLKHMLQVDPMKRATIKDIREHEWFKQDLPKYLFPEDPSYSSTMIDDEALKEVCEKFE
Source text: We next expressed an FLAG-tagged α1 kinase domain (α1-KD, residues 1–312) by transient transfection in HEK293 cells, treated the cells with various AMPK activators, and then assayed both the expressed α1-KD (precipitated using anti-FLAG) and endogenous full-length α1 complexes (precipitated using anti-α1 antibodies recognizing an epitope outside the α1-KD). […] This was also observed with A23187, as expected since this ionophore increases intracellular Ca^2+ and activates the alternate upstream kinase CaMKK2.
The α1-KD was precipitated using anti-FLAG and endogenous AMPK complexes using anti-α1 antibody, and activity determined. Results (mean ± SD, n = 2) are expressed relative to activities in DMSO controls. (B) Western blots (n = 2) using the indicated antibodies; samples from experiment in (A). (C) DNAs encoding FLAG-tagged AMPK-α1 (WT or AT mutant) were expressed by transient transfection in HEK293 cells, the cells treated with increasing concentrations of SU6656 for 1 hr, AMPK complexes precipitated with anti-FLAG, and activity measured. Results (mean ± SD, n = 3) are expressed relative to the DMSO control. […] Results (mean ± SD, n = 3) are expressed relative to the DMSO control. **p < 0.01, ***p < 0.001, ****p < 0.0001, ^†††p < 0.001; ns, not significant.
A plasmid encoding the AMPK-α2 kinase domain (α2-KD) was made by amplifying residues 1-310 with 5' BamH1 and 3' Xho1 sites, the resulting PCR product was cloned into pGEX6P2. Point mutations were generated using the Quikchange II site-directed mutagenesis kit (Stratagene) and confirmed by DNA sequencing.

human AMPK-α2 (WT) = human AMPK-α2 (WT) (Homo sapiens, UniProt P54646); experiment: AMPK activity of FLAG-tagged WT AMPK-α2 expressed in HEK293 cells; settings: SU6656 100 μM, phenformin 10 mM, A23187 10 μM, 1 hr
human AMPK-α2 (WT), sequence (P54646 whole entry, the tested form may be a part): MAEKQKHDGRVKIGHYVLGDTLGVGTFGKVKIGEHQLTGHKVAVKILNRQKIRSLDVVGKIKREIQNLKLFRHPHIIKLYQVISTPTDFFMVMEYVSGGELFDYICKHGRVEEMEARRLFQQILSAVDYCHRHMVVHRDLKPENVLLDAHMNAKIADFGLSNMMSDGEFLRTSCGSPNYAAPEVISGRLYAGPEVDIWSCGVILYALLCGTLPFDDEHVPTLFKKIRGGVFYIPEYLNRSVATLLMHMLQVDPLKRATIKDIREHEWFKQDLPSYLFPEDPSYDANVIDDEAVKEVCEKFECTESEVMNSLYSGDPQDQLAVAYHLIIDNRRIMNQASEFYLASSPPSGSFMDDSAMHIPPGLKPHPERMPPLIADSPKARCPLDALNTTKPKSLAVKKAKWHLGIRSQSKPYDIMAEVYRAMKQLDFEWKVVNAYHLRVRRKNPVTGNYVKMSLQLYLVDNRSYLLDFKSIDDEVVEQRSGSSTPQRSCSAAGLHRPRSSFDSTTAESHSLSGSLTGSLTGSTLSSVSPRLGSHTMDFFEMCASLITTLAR
human AMPK-α2 (WT), sequence (P54619 whole entry partner, the tested form may be a part): as the sequence (P54619 whole entry partner) above
Experimental: Top: AMPK activity (mean ± SEM, n = 4); bottom: western blots showing phosphorylation of Thr172 on AMPK, and of ERK1/2, in cells treated with DMSO (control), SU6656 (100 μM), or PP2 (100 nM) (n = 2). (B) As (A), but in SYF cells. (C) HeLa cells were transfected with DNAs encoding GFP alone, or GFP fused to WT, Y261F/Y365F (FF), or Y36F/Y261F/Y365F (FFF) mutants of LKB1; cells were treated with increasing concentrations of SU6656 for 1 hr and AMPK activity determined (mean ± SEM, n = 4). See also Figure S1. (D) HEK293 cells were transfected with DNAs encoding FLAG-tagged AMPK-α2 with or without a Y436F mutation. Cells were incubated with DMSO (control), 100 μM SU6656, 10 mM phenformin, or 10 μM A23187 for 1 hr; AMPK complexes were immunoprecipitated using anti-FLAG antibody and assayed. The top panels show kinase activities (mean ± SD, n = 3); the bottom panels show blots from the same experiment (n = 2). In all panels, asterisks indicate significant differences from DMSO controls; in (D), there were no significant differences between the WT and Y463F mutant. **p < 0.01, ****p < 0.0001.

AMPK-γ2 (WT) = molecular target: T3, AMPK-γ2 (WT) (Homo sapiens, UniProt Q9UGJ0); experiment: AMPK activity in HEK293 cells expressing WT AMPK-γ2; settings: 1 hr
T3 construct: expressed in transfected cells; host or cells: Flp-In T-REx 293 (HEK293), tetracycline-inducible
T3 sequence (Q9UGJ0 whole entry): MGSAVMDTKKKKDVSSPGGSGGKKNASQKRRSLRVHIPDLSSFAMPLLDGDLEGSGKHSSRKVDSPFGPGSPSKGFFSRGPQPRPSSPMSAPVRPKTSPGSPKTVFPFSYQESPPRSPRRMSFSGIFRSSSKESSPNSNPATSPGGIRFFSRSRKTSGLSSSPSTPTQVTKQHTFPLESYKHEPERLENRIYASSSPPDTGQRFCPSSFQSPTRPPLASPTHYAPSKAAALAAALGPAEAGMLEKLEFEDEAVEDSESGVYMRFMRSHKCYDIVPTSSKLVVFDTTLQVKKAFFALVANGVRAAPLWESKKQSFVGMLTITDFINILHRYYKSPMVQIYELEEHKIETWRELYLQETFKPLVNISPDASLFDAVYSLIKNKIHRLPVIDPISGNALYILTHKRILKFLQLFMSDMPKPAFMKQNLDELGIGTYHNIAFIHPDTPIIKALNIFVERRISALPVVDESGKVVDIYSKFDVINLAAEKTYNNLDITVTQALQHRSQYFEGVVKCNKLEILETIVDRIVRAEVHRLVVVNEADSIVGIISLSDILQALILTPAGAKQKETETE
Source text: The next possibility was that, like several other AMPK-activating drugs, SU6656 inhibits mitochondrial ATP synthesis, and thus activates AMPK indirectly by increasing cellular AMP/ADP. To test this, we used cell lines inducibly expressing either WT AMPK-γ2 or an AMP/ADP-resistant R531G (RG) mutant ([Hawley et al., 2010]). […] There were no effects of SU6656 on cellular oxygen uptake, unlike berberine. Subsequent addition of the uncoupler 2,4-dinitrophenol (DNP), which prevents the respiratory chain from being limited by ADP supply, increased oxygen uptake identically in control and SU6656-treated cells but had no effect following berberine, as expected for a complex I inhibitor (Figure S2).
(B) WT or RG cells were treated as in (A) and nucleotides extracted for analysis (mean ± SD, n = 3). […] (E) (See also Figure S2) Time courses of cellular oxygen uptake before and after addition of the indicated concentrations of sorafenib (SO, μM), SU6656 (100 μM) or phenformin (PHEN, 10 mM) (mean ± SEM, n = 4). (F) Effect of various concentrations of sorafenib or phenformin (10 mM) on activation (top, mean ± SEM, n = 3) or phosphorylation (bottom) of AMPK in cells expressing wild-type AMPK-γ2 (WT) or the R531G mutant AMPK-γ2 (RG). In all panels, asterisks show significant differences from DMSO controls (ns, not significant). In (B), daggers (†) show significant differences between results in WT and RG cells. *p < 0.05, **p < 0.01, ***p < 0.001, ****p < 0.0001, ^††††p < 0.0001.
HEK-293 cells stably expressing tetracycline-inducible FLAG-tagged human AMPK-γ2, or an R531G mutant, were generated by introducing the corresponding DNAs into Flp-In™ T-REx™ 293 cells ([Auciello et al., 2014]). Expression of the FLAG-tagged constructs was induced for 48 hr using tetracycline (1 μg.ml^-1) prior to addition of compounds under test. Transient transfections were carried out 36-48 hr prior to experiments, using Fugene 6 according to manufacturers’ instructions.

Row | increase in activity and Thr172 phosphorylation (AMPK-α1 AA mutant; AA mutant FLAG-α1, 100 μM, relative to DMSO control) | AMPK activity in anti-FLAG immunoprecipitates (human AMPK-α2 (WT)) | effect of AA mutation on AMPK activation (AMPK-α1 AA mutant; AA mutant FLAG-α1, same concentrations, 1 hr) | Compound | kinase activity / Thr172 phosphorylation [1] | AMPK activity (AMPK-γ2 (WT))
1 | 3 fold | all activated AMPK |  | CN(C)S(=O)(=O)c1ccc2c(c1)/C(=C/c1cc3c([nH]1)CCCC3)C(=O)N2 [SU6656] | increased kinase activity | activated AMPK and enhanced Thr172 phosphorylation in both WT and RG cells
2 |  |  | abolished | COc1ccc2cc3[n+](cc2c1OC)CCc1cc2c(cc1-3)OCO2 [berberine] | failed to activate or cause Thr172 phosphorylation | activated AMPK in the WT
